Literature values, collected in US5362496A, “Method and therapeutic system for smoking cessation” (priority 1993, dated 1994).
Where two headings read alike, the source gives them in different places. Peptide text beside a SMILES is read from it.

Key:
[1] = human cadaver skin in vitro
[2] = free base; mucous membranes and intact skin
[3] = system: nicotinic cholinergic receptors in the central nervous system and at autonomic ganglia; details: in 10 minutes
[4] = relative, Sucrose = 1.0
[5] = system: Streptococcus mutans and other oral microorganisms
[6] = in vitro and in vivo studies
[7] = humans

| Compound | Sweetness [4] | cariogenicity [5] | also measured |
| --- | --- | --- | --- |
| CN1CCCC1c1cccnc1 (stereo not shown) [nicotine] |  |  | skin permeability ([1]; first day of patch use): ~0.1 mg/cm^2 ·h; skin permeability ([1]; later times): ≥ 0.4 mg/cm^2 ·h; absorption through membranes and skin [2]: absorbed readily through mucous membranes and intact skin; lipid solubility: highly lipid soluble; volatility (free base): extremely volatile; light stability (ultraviolet light): degrades when exposed to ultraviolet light; rise in nicotine blood level required for postsynaptic effects [3]: at least 10 ng/mL |
| OC[C@@H](O)[C@@H](O)[C@H](O)[C@H](O)CO [Mannitol] | 0.4-0.6 | generally not fermented to any significant degree and are less cariogenic than sucrose |  |
| CC1(C)[C@@H](O[C@H]2O[C@H](C(=O)O)[C@@H](O)[C@H](O)[C@H]2O[C@@H]2O[C@H](C(=O)O)[C@@H](O)[C@H](O)[C@H]2O)CC[C@]2(C)[C@H]3C(=O)C=C4[C@@H]5C[C@@](C)(C(=O)O)CC[C@]5(C)CC[C@@]4(C)[C@]3(C)CC[C@@H]12 [ammonium glycyrrhizinate] |  | generally not fermented to any significant degree and are less cariogenic than sucrose |  |
| OC[C@@H](O)[C@@H](O[C@H]1O[C@H](CO)[C@@H](O)[C@H](O)[C@H]1O)[C@H](O)[C@@H](O)CO [Maltitol] | 0.7-0.9 | generally not fermented to any significant degree and are less cariogenic than sucrose |  |
| OC[C@H]1O[C@@](CO)(O[C@H]2O[C@H](CO)[C@@H](O)[C@H](O)[C@H]2O)[C@@H](O)[C@@H]1O [sucrose, reference compound] |  | cariogenic or caries causing |  |
| O=C(CO)[C@@H](O)[C@H](O)[C@H](O)CO[C@H]1O[C@H](CO)[C@@H](O)[C@H](O)[C@H]1O [Palantinose] | 0.4-0.5 | generally not fermented to any significant degree and are less cariogenic than sucrose |  |
| Monellin | 2500 |  |  |
| COC(=O)[C@H](Cc1ccccc1)NC(=O)[C@@H](N)CC(=O)O [Aspartame] (H-Asp-Phe-OMe) | 100-200 |  |  |
| COc1ccc([C@@H]2CC(=O)c3c(O)cc(O[C@@H]4O[C@H](CO)[C@@H](O)[C@H](O)[C@H]4O[C@@H]4O[C@@H](C)[C@H](O)[C@@H](O)[C@H]4O)cc3O2)cc1O [Neohesperidine] | 1000 |  |  |
| OC[C@@H](O)[C@H](O)[C@@H](O)CO [Xylitol] | 1.0 | generally not fermented to any significant degree and are less cariogenic than sucrose | effect on development of new caries [6]: inhibit the development of new caries; effect on food intake [7]: decrease food intake; effect on gastric emptying [7]: prolong gastric emptying |
| CC1=CC(=O)NS(=O)(=O)O1 [Acesulfame] | 200 |  |  |
| O=C[C@H](O)[C@@H](O)[C@H](O)[C@H](O)CO [glucose] |  | cariogenic or caries causing |  |
| starch |  | cariogenic or caries causing |  |
| O=C(CO)[C@@H](O)[C@H](O)[C@H](O)CO [fructose] |  | generally not fermented to any significant degree and are less cariogenic than sucrose |  |
| O=S(=O)(O)NC1CCCCC1 [Cyclamate] | 30-40 |  |  |
| O=C1NS(=O)(=O)c2ccccc21 [Saccharin] | 400-500 |  |  |
| OC[C@@H](O)[C@@H](O)[C@H](O)[C@@H](O)CO [Sorbitol] | 0.5-0.6 | generally not fermented to any significant degree and are less cariogenic than sucrose |  |
